According to article PMC6199744, “Development of Chemical Proteomics for the Folateome and Analysis of the Kinetoplastid Folateome” (ACS Infectious Diseases, 2018):
Like-named read-outs stand apart in the source and are kept apart here.

How the values were obtained:
Assay type in all cases: binding
[1] = molecular target: T1, HeLa cell extract proteins (Homo sapiens, UniProt P17812)
T1 construct: endogenous in cells; host or cells: HeLa cell extract
T1 sequence (P17812 1-591): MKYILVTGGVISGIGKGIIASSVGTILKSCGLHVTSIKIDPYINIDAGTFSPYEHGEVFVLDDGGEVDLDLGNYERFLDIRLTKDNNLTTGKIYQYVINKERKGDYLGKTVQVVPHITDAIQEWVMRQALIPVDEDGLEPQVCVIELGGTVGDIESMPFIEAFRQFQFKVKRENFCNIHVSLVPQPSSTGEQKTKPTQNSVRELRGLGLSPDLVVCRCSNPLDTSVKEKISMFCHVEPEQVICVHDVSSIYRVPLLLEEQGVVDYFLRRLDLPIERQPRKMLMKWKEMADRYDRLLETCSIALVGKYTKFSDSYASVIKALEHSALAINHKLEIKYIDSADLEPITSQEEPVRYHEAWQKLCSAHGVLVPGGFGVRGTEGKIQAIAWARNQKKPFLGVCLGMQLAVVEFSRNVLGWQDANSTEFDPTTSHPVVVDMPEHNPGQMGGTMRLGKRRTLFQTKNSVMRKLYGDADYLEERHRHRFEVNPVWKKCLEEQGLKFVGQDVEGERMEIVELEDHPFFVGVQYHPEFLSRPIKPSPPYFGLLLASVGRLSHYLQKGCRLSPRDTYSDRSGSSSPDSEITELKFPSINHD

[2] = molecular target: T2, HeLa cell extract proteins (Homo sapiens, UniProt P16615)
T2 construct: endogenous in cells; host or cells: HeLa cell extract

[3] = molecular target: T3, HeLa cell extract proteins (Homo sapiens, UniProt Q9HAV4)
T3 construct: endogenous in cells; host or cells: HeLa cell extract
T3 sequence (Q9HAV4 1-1204): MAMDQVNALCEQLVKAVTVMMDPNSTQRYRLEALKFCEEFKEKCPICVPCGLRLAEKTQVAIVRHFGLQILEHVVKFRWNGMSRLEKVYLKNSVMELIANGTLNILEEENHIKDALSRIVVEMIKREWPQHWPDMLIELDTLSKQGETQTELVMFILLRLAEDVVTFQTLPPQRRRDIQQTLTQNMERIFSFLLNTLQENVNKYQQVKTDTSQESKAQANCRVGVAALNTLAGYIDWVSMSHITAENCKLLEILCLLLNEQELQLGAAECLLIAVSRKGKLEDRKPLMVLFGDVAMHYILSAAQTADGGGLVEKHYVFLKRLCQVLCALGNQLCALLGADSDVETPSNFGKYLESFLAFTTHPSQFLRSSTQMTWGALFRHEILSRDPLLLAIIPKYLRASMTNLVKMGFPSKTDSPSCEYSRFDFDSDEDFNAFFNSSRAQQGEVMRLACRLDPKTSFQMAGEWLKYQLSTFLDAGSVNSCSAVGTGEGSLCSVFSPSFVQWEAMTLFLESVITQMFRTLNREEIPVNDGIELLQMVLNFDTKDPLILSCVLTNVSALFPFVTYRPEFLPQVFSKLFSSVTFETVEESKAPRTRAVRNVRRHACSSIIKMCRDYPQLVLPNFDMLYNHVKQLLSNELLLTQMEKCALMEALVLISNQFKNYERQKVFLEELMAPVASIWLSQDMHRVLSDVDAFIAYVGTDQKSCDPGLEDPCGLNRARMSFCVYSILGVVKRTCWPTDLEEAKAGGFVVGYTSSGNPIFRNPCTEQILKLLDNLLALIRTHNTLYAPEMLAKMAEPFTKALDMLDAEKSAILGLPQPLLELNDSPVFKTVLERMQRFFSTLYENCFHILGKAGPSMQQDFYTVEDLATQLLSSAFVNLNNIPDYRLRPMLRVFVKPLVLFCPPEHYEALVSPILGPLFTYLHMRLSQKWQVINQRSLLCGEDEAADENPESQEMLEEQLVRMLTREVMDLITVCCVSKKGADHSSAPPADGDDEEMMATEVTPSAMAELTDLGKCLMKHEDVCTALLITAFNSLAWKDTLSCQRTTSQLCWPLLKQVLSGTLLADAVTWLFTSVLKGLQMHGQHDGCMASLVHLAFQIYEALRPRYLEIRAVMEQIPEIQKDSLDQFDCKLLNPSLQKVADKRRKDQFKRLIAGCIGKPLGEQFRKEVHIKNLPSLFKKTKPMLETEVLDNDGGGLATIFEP

[4] = molecular target: T4, HeLa cell extract proteins (Homo sapiens, UniProt P08758)
T4 construct: endogenous in cells; host or cells: HeLa cell extract
T4 sequence (P08758 1-320): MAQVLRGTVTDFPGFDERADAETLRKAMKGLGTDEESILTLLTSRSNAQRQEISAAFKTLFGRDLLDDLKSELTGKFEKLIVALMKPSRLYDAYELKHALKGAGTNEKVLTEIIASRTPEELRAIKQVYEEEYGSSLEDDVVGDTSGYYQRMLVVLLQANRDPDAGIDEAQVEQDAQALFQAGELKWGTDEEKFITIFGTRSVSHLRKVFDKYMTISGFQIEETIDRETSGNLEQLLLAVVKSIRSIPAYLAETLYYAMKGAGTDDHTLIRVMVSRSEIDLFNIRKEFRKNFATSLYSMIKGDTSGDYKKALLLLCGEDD

[5] = molecular target: T5, HeLa cell extract proteins (Homo sapiens, UniProt Q9HB07)
T5 construct: endogenous in cells; host or cells: HeLa cell extract
T5 sequence (Q9HB07 48-376): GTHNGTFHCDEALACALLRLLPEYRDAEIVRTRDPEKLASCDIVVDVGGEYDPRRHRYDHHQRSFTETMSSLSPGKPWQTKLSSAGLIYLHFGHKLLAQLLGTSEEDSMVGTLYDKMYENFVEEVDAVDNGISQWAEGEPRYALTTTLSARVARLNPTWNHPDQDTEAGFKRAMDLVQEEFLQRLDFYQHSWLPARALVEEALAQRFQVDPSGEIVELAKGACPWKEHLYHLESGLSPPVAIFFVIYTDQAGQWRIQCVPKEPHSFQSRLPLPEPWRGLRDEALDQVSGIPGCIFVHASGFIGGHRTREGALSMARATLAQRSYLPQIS

[6] = molecular target: T6, HeLa cell extract proteins (Homo sapiens, UniProt O00299)
T6 construct: endogenous in cells; host or cells: HeLa cell extract

[7] = HeLa, protein ANXA5 (ANNEXIN A5.)
[8] = captured protein C12ORF10, HeLa
[9] = HeLa, captured protein C12ORF10

T2 sequence (P16615 whole entry): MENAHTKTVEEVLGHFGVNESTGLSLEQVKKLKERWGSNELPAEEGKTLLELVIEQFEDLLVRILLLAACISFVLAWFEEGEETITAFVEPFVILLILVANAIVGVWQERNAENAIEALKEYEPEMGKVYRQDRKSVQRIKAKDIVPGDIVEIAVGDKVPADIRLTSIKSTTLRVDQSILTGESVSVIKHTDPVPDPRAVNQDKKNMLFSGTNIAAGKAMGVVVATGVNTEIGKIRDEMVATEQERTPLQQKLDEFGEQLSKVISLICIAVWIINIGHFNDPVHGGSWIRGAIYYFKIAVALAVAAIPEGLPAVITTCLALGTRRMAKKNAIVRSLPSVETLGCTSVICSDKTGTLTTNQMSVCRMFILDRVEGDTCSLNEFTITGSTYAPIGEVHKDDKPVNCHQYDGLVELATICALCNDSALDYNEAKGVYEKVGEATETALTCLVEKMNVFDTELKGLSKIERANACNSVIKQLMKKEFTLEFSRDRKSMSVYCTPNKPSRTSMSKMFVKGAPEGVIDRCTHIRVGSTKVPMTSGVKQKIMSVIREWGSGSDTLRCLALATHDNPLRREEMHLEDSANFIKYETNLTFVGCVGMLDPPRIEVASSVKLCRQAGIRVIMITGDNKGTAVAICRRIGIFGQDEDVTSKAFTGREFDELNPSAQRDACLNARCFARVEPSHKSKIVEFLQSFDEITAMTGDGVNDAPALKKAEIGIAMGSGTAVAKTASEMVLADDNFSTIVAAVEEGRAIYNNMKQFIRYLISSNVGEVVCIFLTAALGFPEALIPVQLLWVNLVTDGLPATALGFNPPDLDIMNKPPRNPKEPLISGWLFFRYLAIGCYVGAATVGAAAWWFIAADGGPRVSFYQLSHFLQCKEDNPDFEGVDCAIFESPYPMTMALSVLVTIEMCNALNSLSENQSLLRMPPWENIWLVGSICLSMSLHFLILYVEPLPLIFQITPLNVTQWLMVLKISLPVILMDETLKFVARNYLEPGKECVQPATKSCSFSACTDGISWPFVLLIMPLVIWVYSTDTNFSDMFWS

Compound | fold changes relative to vehicle control ([1]; HeLa, protein CTPS) | fold changes relative to vehicle control ([2]; HeLa, protein ATP2A2) | fold changes relative to vehicle control ([3]; HeLa, protein XPO5) | fold changes relative to vehicle control [4, 7] [fold] | fold changes relative to vehicle control [5, 8] | fold changes relative to vehicle control ([6]; protein CLIC1, HeLa) | fold changes relative to vehicle control ([3]; protein XPO5, HeLa) | fold changes relative to vehicle control ([4]; HeLa, protein ANXA5) | fold changes relative to vehicle control [5, 9] | fold changes relative to vehicle control ([6]; HeLa, protein CLIC1) | fold changes relative to vehicle control [1] | fold changes relative to vehicle control [2] | fold changes relative to vehicle control [3] | fold changes relative to vehicle control [4] | fold changes relative to vehicle control [5] | fold changes relative to vehicle control [6]
Nc1nc2cccc(-c3ccccc3)c2n1Cc1ccc(Cl)c(Cl)c1 [compound 3] | 0.95 | 0.98 | 1.1 | 0.91 | 1.04 | 0.87 |  |  |  |  |  |  |  |  |  | 
CCCCCCOc1ccc(Cc2cnc(N)nc2N)cc1 [compound 1] | 0.99 | 1.05 | 1 | 1.33 | 1.05 | 1.21 |  |  |  |  |  |  |  |  |  | 
NCCCNc1ccc(C(=O)NC(CCC(=O)O)C(=O)O)cc1 (stereo not drawn) [compound 7] | 0.98 | 0.99 |  |  |  |  | 0.98 | 0.9 | 1.12 | 0.99 |  |  |  |  |  | 
CCCCCCOc1cccc(Cc2cnc(N)nc2N)c1 [compound 2] | 1.09 | 1.12 | 1.18 | 2.23 | 1.06 | 2.13 |  |  |  |  |  |  |  |  |  | 
NCCOCCOCC(=O)Nc1nc2ncc(CNc3ccc(C(=O)NC(CCC(=O)O)C(=O)O)cc3)nc2c(=O)[nH]1 (stereo not drawn) [compound 6] | 0.95 | 1.03 |  |  |  |  | 1.02 | 1.26 | 0.78 | 1.44 |  |  |  |  |  | 
Nc1nc2[nH]cc(CCc3ccc(C(=O)N[C@@H](CCC(=O)O)C(=O)O)cc3)c2c(=O)[nH]1 [PTX, pemetrexed] |  |  |  |  |  |  |  |  |  |  | 0.85 | 1.03 | 0.92 | 0.97 | 0.33 | 1.26
Nc1nc2c(c(=O)[nH]1)N(C=O)C(CNc1ccc(C(=O)N[C@@H](CCC(=O)O)C(=O)O)cc1)CN2 (stereo partly drawn) [LEU, leucovorin] | 0.93 | 1 |  |  |  |  | 0.86 | 0.99 | 1.08 | 1.09 |  |  |  |  |  | 
